Measurements reported in ChEMBL document CHEMBL1150670, “Anti-HIV agents derived from the ent-kaurane diterpenoid linearol” (J Nat Prod, 2002).
In brackets after ≈: the same amount, converted by molar mass. Activity calls are given as the source filed them. The calls are words filed in the database; no cut-off is given here.

Key:
[1] = Therapeutic index, ratio of IC50 for human H9 cells to EC50 for HIV1 3B replication in human H9 cells; format: cell-based; details: read-out: Ratio IC50/EC50
[2] = test system: Human immunodeficiency virus 1; test: Antiviral activity against HIV1 3B replication in human H9 cells assessed as inhibition of p24 antigen production after 4 days by ELISA; format: functional, organism-based; details: for EC50: Human immunodeficiency virus 1, 3B, H9, 96 h
H9 = test: Cytotoxicity against human H9 cells by Coulter counting analysis; format: cell-based

| Structure (SMILES) | selectivity ratio [1] | EC50 [2] [µg/mL] | IC50 (H9) [µg/mL] | Activity [2] |
| --- | --- | --- | --- | --- |
| C=C1C[C@@]23C[C@@H]1CC[C@H]2[C@]1(C)CC[C@@H](OC(=O)CC)[C@](C)(COC(C)=O)[C@@H]1C[C@@H]3OC(=O)CC | 6.1 | 2.63 (≈ 5.54 µM) | 16 (≈ 33.7 µM) | – |
| CC(=O)OC[C@]1(C)[C@@H]2C[C@H](OC(C)=O)[C@]34C[C@H](CC[C@H]3[C@]2(C)CC[C@H]1OC(C)=O)[C@@]1(CO1)C4 | 163 | 0.13 (≈ 0.281 µM) | 20.6 (≈ 44.5 µM) | – |
| C=C1C[C@@]23C[C@@H]1CC[C@H]2[C@]1(C)CC[C@@H](OC(=O)c2ccc(OC)cc2)[C@](C)(COC(C)=O)[C@@H]1C[C@@H]3OC(=O)c1ccc(OC)cc1 | > 19.2 | < 0.1 | 1.9 (≈ 3.01 µM) | – |
| C=C1C[C@@]23C[C@@H]1CC[C@H]2[C@]1(C)CC[C@@H](OC(=O)c2ccc(Cl)cc2)[C@](C)(COC(C)=O)[C@@H]1C[C@@H]3O | – | – | 54 (≈ 108 µM) | inactive |
| C=C1C[C@@]23C[C@@H]1CC[C@H]2[C@]1(C)CC[C@@H](OC(=O)c2ccc4c(c2)OCO4)[C@](C)(COC(C)=O)[C@@H]1C[C@@H]3O | – | – | 5.3 (≈ 10.4 µM) | inactive |
| C=C1C[C@@]23C[C@@H]1CC[C@H]2[C@]1(C)CC[C@@H](O)[C@](C)(COC(C)=O)[C@@H]1C[C@@H]3O [LINEAROL] | – | – | 56.5 (≈ 156 µM) | inactive |
| C=C1C[C@@]23C[C@@H]1CC[C@H]2[C@]1(C)CC[C@@H](OC(=O)c2ccc(C)cc2)[C@](C)(COC(C)=O)[C@@H]1C[C@@H]3OC(=O)c1ccc(C)cc1 | 50.1 | 1.05 (≈ 1.75 µM) | 52.5 (≈ 87.7 µM) | – |
| C=C1C[C@@]23C[C@@H]1CC[C@H]2[C@]1(C)CC[C@@H](OC(=O)c2ccccc2OC)[C@](C)(COC(C)=O)[C@@H]1C[C@@H]3O | – | – | 5.4 (≈ 10.9 µM) | inactive |
| C=C1C[C@@]23C[C@@H]1CC[C@H]2[C@]1(C)CC[C@@H](OC(=O)c2ccccc2)[C@](C)(COC(C)=O)[C@@H]1C[C@@H]3OC(=O)c1ccccc1 | – | – | 2.2 (≈ 3.85 µM) | inactive |
| C=C1C[C@@]23C[C@@H]1CC[C@H]2[C@]1(C)CC[C@@H](OC(=O)c2ccc(Cl)cc2)[C@](C)(COC(C)=O)[C@@H]1C[C@@H]3OC(=O)c1ccc(Cl)cc1 | – | – | 60.1 (≈ 94 µM) | inactive |
| C=C1C[C@@]23C[C@@H]1CC[C@H]2[C@]1(C)CC[C@@H](OC(=O)c2ccc(F)cc2)[C@](C)(COC(C)=O)[C@@H]1C[C@@H]3O | – | – | 57.7 (≈ 119 µM) | inactive |
| C=C1C[C@@]23C[C@@H]1CC[C@H]2[C@]1(C)CC[C@@H](OC(=O)c2ccc(SC)cc2)[C@](C)(COC(C)=O)[C@@H]1C[C@@H]3O | – | – | 5.3 (≈ 10.3 µM) | inactive |
| C=C1C[C@@]23C[C@@H]1CC[C@H]2[C@]1(C)CC[C@@H](OC(=O)c2ccc(F)cc2)[C@](C)(COC(C)=O)[C@@H]1C[C@@H]3OC(=O)c1ccc(F)cc1 | – | – | 41.1 (≈ 67.7 µM) | inactive |
| C=C1C[C@@]23C[C@@H]1CC[C@H]2[C@]1(C)CC[C@@H](OC(=O)c2ccc(C#N)cc2)[C@](C)(COC(C)=O)[C@@H]1C[C@@H]3OC(=O)c1ccc(C#N)cc1 | – | – | > 100 | inactive |
| C=C1C[C@@]23C[C@@H]1CC[C@H]2[C@]1(C)CC[C@@H](OC(=O)c2cnccn2)[C@](C)(COC(C)=O)[C@@H]1C[C@@H]3OC(=O)c1cnccn1 | – | – | 5.6 (≈ 9.74 µM) | inactive |
| C=C1C[C@@]23C[C@@H]1CC[C@H]2[C@]1(C)CC[C@@H](OC(=O)c2ccc(OC)cc2)[C@](C)(COC(C)=O)[C@@H]1C[C@@H]3O | – | – | 2 (≈ 4.03 µM) | inactive |
| CC(=O)OC[C@]1(C)[C@@H]2C[C@H](O)[C@@]34CC(=O)[C@@H](CC[C@H]3[C@]2(C)CC[C@H]1O)C4 | – | – | > 100 | inactive |
| C=C1C[C@@]23C[C@@H]1CC[C@H]2[C@]1(C)CC[C@@H](OC(=O)c2ccccc2)[C@](C)(COC(C)=O)[C@@H]1C[C@@H]3O | – | – | 1.8 (≈ 3.86 µM) | inactive |
| C=C1C[C@@]23C[C@@H]1CC[C@H]2[C@]1(C)CC[C@@H](OC(=O)c2ccc4c(c2)OCO4)[C@](C)(COC(C)=O)[C@@H]1C[C@@H]3OC(=O)c1ccc2c(c1)OCO2 | 184 | 0.27 (≈ 0.41 µM) | 50.6 (≈ 76.8 µM) | – |
| C=C1C[C@@]23C[C@@H]1CC[C@H]2[C@]1(C)CC[C@@H](OC(=O)c2ccc(SC)cc2)[C@](C)(COC(C)=O)[C@@H]1C[C@@H]3OC(=O)c1ccc(SC)cc1 | – | – | 59.8 (≈ 90.2 µM) | inactive |
| C=C1C[C@@]23C[C@@H]1CC[C@H]2[C@]1(C)CC[C@@H](OC(=O)c2cccc([N+](=O)[O-])c2)[C@](C)(COC(C)=O)[C@@H]1C[C@@H]3OC(=O)c1cccc([N+](=O)[O-])c1 | – | – | 21.4 (≈ 32.4 µM) | inactive |
| CC(=O)OC[C@]1(C)[C@@H]2C[C@H](O)[C@]34C[C@H](CC[C@H]3[C@]2(C)CC[C@H]1O)[C@@]1(CO1)C4 | – | – | > 100 | – |
| C=C1C[C@@]23C[C@@H]1CC[C@H]2[C@]1(C)CC[C@@H](OC(=O)c2ccc([N+](=O)[O-])cc2)[C@](C)(COC(C)=O)[C@@H]1C[C@@H]3OC(=O)c1ccc([N+](=O)[O-])cc1 | – | – | > 100 | inactive |
| C=C1C[C@@]23C[C@@H]1CC[C@H]2[C@]1(C)CC[C@@H](OC(=O)CC)[C@](C)(COC(C)=O)[C@@H]1C[C@@H]3O | – | – | 22.2 (≈ 53 µM) | inactive |
| C=C1C[C@@]23C[C@@H]1CC[C@H]2[C@]1(C)CC[C@@H](OC(=O)c2ccccc2OC)[C@](C)(COC(C)=O)[C@@H]1C[C@@H]3OC(=O)c1ccccc1OC | – | – | 6 (≈ 9.51 µM) | inactive |
| C=C1C[C@@]23C[C@@H]1CC[C@H]2[C@]1(C)CC[C@@H](OC(=O)c2ccco2)[C@](C)(COC(C)=O)[C@@H]1C[C@@H]3OC(=O)c1ccco1 | 3.49 | 3.11 (≈ 5.65 µM) | 10.8 (≈ 19.6 µM) | – |
| CC(=O)O[C@@H]1CC[C@]2(C)[C@@H](C[C@H](O)[C@]34C[C@H](CC[C@@H]23)[C@@]2(CO2)C4)[C@@]1(C)CO | – | – | > 100 | inactive |
